≈ marks a conversion by molar mass, not a printed value. Positions of bridges follow the written chain, without caps; N, C: chain ends. Non-standard residues stand in square brackets, D forms with d. Residues, ends and D or L forms follow the SMILES beside them. dCha = N[C@H](CC1CCCCC1)C(=O)O
Tests used:
MRSA ATCC 33591 [1] = experiment: microbe, parasite or virus in culture; type: cell-based, Staphylococcus aureus; conditions: Table 2; MHB with 0.002% polysorbate 80, 37 °C, 24 h, two independent duplicates
Method: (§1) MICs were performed as previously reported 4. For MIC testing all peptides were dissolved in DMSO.
(§2) Bacterial cultures were grown overnight on Mueller-Hinton Agar (MHA) plates and adjusted to a final inoculum of 10^5 – 10^6 CFU/mL. 100 µl of ino culum in Meuller -Hinton broth (MHB) was mixed with equal volume of peptides (dissolved in MHB) at 2x their concentration in a 96 well plate . For daptomycin MIC determination, the same protocol was followed with the addition of 50 mg/L calcium chloride to the medium. MIC values were determined in the media contain ing polysorbate 80 (0.002%, v/v) to prevent non -specific adsorption of the peptides to plastic surfaces. The final peptides concentrations ranged from 0.0625 – 32 µg/mL. The 96 well plates were then incubated at 37 °C for 24 h. All the experiments were performed in two independent duplicates and the MIC was determined as the lowest concentration in which no visible growth was observed. […]

[2] = system: MDR clinical strains of S. aureus and E. faecium; type: cell-based, Staphylococcus aureus; Enterococcus faecium; conditions: range over 4 S. aureus and 3 E. faecium strains
Method: as §1, §2

MRSA ATCC 33591 [3] = experiment: Time-kill kinetics; type: cell-based, Staphylococcus aureus; conditions: 2.5 μg/mL (10× MIC), MHB with 0.002% polysorbate 80, 37 °C, two independent experiments in duplicate
Method: Early-stage time-kill kinetics for analogue 12 against MRSA ATCC 33591 were performed using vancomycin as a control, following the protocol described in Section VIII, Supporting Information.
3 Time-kill kinetics of Novltex analogue 12 and clinical antibiotic (vancomycin) against MRSA 33591. […] Results are the mean ± SD of two independent experiments performed in duplicate.
as §1
Bacterial cultures were grown overnight on Mueller-Hinton Agar (MHA) plates and adjusted to a final inoculum of 10^5 – 10^6 CFU/mL. 100 µl of ino culum in Meuller -Hinton broth (MHB) was mixed with equal volume of peptides (dissolved in MHB) at 2x their concentration in a 96 well plate . For daptomycin MIC determination, the same protocol was followed with the addition of 50 mg/L calcium chloride to the medium. MIC values were determined in the media contain ing polysorbate 80 (0.002%, v/v) to prevent non -specific adsorption of the peptides to plastic surfaces. The final peptides concentrations ranged from 0.0625 – 32 µg/mL. The 96 well plates were then incubated at 37 °C for 24 h. All the experiments were performed in two independent duplicates and the MIC was determined as the lowest concentration in which no visible growth was observed.
Antibiotics MIC break points ( µg/mL)
Table. […]

[4] = Lipid II binding, spot-on-lawn assays on S. aureus ATCC 33591; design: species or system Staphylococcus aureus; conditions: overnight 37 °C
Source text: 6 Spot-on-lawn assays to evaluate binding of Lipid II with analogue 12 on S. aureus ATCC 33591. (A) Analogue 12 was premixed with increasing ratios of lipid II (0.5 to 4 equiv) and spotted onto a seeded lawn of S. aureus 33591. Lipid II and analogue 12 were also spotted independently. The position of the analogue 12–lipid II mixture is marked in red. (B) Daptomycin was used as a negative control. Asterisks denote the positions of analogue 12 (black), lipid II (blue), and daptomycin (green) additions.
Analogue 12 was premixed with increasing ratios of lipid II (0.5 to 4 equiv) for 10 min prior to spotting onto agar plates seeded with a lawn of S. aureus ATCC 33591 and incubated overnight.
XII. Lipid II binding determination of analogue 12
Previously reported methods were used to determine the lipid II binding of analogue 126,7. The lipid II used in this study was prepared by chemical synthesis and its preparation and purification has been […]
A: An overnight culture of S. aureus ATCC 33591 was added to LB agar (45 °C) at a final concentration of 0.1% (vol/vol) and pour-plated into 90 mm petri dishes. Binding of 12 to purified lipid II was assessed using a spot-on-lawn assay. Premixed solutions (5 µL) containing analogue 12 (8 µg) with varying concentration of lipid II were spotted onto the agar, alongside individual controls of 12 and lipid II.
After drying, plates were incubated overnight at 37 °C. This assay was performed in duplicates.
B: To assess the interaction between analogue 12 and lipid II, a culture of S. aureus ATCC 33591 was grown overnight in LB broth and inoculated into LB agar at a final concentration of 1% (v/v) at 45°C.
This mixture was evenly distributed into 90mm petri dishes. Antibiotic inhibition haloes were previously determined by spotting analogue 12 and daptomycin (5 μL,8 µg/mL) onto agar plates and measuring the diameter of the halo after overnight incubation at 37 °C . The binding affinity of analogue 12 and lipid II was later examined by applying purified lipid II (300 μM, 2 μL) to the edge of the antibiotic halo. Analogue 12 and Daptomycin were applied to the inoculated agar plate at a spaced distance, once the antimicrobial solution drops had dried, lipid II was spotted on the edge of the inhibition halo. The plates were then incubated overnight at 37 °C. […]

**Q.** With `CC(C)C[C@@H]1NC(=O)[C@H](C)NC(=O)[C@H](NC(=O)[C@H](CO)NC(=O)[C@@H](CCCCN)NC(=O)[C@@H](CC2CCCCC2)NC(=O)[C@@H](N)Cc2ccccc2)[C@H](C)OC(=O)[C@H](CC(C)C)NC1=O` [analogue 12, Leu2Cha–Novltex] (H-F[dCha][dK]S[dT]ALL; ester 5-C) as the molecule, how does the “MIC against MRSA ATCC 33591” value (MRSA ATCC 33591 [1]) read?
**A.** The value was 0.25 µg/mL (≈ 0.273 µM).

**Q.** And the “MIC against both groups of MDR clinical strains” value [2]?
**A.** The value was 0.063 to 0.5 µg/mL.

**Q.** What about the “time to significant bacterial killing” value (MRSA ATCC 33591 [3]) of the same molecule?
**A.** Its value is no more than 6 h.

**Q.** And the “zone of inhibition, spot-on-lawn” value ([4]; absence of lipid II, 8 µg spotted, duplicates)?
**A.** The value was “clear and substantial zone of inhibition”.

**Q.** And the “zone of inhibition, spot-on-lawn, premixed with lipid II” value ([4]; lipid II 1:1 ratio, premixed 10 min)?
**A.** The value was “antimicrobial activity was completely abolished”.

**Q.** What about the “halo distortion on addition of lipid II” value ([4]; lipid II (300 μM, 2 μL) at the edge of the antibiotic halo, duplicates) of the same molecule?
**A.** Its value is “formed a noncircular spot”.

**Q.** What about the “zone of inhibition, spot-on-lawn, premixed with lipid II” value ([4]; lipid II ratio 0.5, premixed 10 min) of the same molecule?
**A.** The value was “only a faint zone remained”.
